The values below come from patent US20130231472A1, “USE OF MOLECULAR MARKERS FOR THE PRECLINICAL PROFILING OF INHIBITORS OF ENZYMES HAVING HISTONE DEACETYLASE ACTIVITY” (priority 2002, published 2013).

Assay [1] concerns HDAC-2 mRNA. As to the kind of experiment: HDAC-2 mRNA levels in F9 cells (Northern blot). The conditions noted are these: 1 mM VPA, FIG. 7. It is filed as cell-based, murine. As to the method: (§1) FIG. 7: F9 cells or HEK 293T cells were treated for indicated times with 1 mM VPA and the levels of HDAC-2 mRNA were determined by Northern blot analysis from 5 μg polyA^+ RNA.
The test system of assay [2] is splenocytes from healthy mice. As to the kind of experiment: Apoptosis of cultured normal splenocytes (propidium iodide staining). It is filed as cell-based. The conditions noted are these: VPA 1 mM, 48 hours, FIG. 3B. As to the method: (§2) FIG. 3: (A) Secondary acute promyelocytic leukemias were induced in mice as described above. Leukemic mice were then treated with placebo (Ctrl), or VPA (400 mg/kg every 12 hours). Mice were sacrificed 48 hours after beginning of treatments, and then leukemic spleens were fixed and either stained for histological examination (hematoxylin-eosyn, left panels), or analyzed for the presence of apoptotic cells (TUNEL assay, right panels). (B) Secondary leukemias were obtained as above. Mice were sacrificed when leukemic invasion of peripheral organs was >75% (spleen). Splenocytes from healthy mice (taken as control, left panel), or from leukemic mice (>75% blasts, right panel) were put in culture and then treated with VPA (1 mM) for 48 hours. At the end of the treatment, apoptosis was measured by propidium iodide staining. The sub-G1 area indicates the hypodiploid DNA peak corresponding to cells with fragmented DNA undergoing apoptosis.

Assay [3] relates to HDAC-2. As to the kind of experiment: HDAC-2 protein levels in HEK293T cells (Westernblot). Type of assay: cell-based, human. As to the method: (§3) FIG. 6: (A) F9 teratocarcinoma or HEK293T embryonic kidney cells were exposed for indicated times to 1 mM VPA. Protein levels of HDAC-2 and HDACs 1 or 3 for reference (HDAC8; N-CoR and Sin3 as data not shown) were determined by Westernblot analysis. […] (C) The effect of other HDAC inhibitors on the amount of HDAC-2 protein was determined by using TSA (100 nM) in a time course analysis in F9 cells (left panel). The HDAC inhibitors TSA (100 nM), trapoxin (TPX, 10 nM), butyrate (1.5 mM) or MS275 (5 μM) were tested at a single time of exposure in HEK293T cells (right panel).
FIG. 9: (A) HEK293T cells were treated for 24 h with VPA or left untreated. The cell penetrating protease inhibitors pepstatin A, leupeptin, or ALLM were added as indicated at the time of VPA addition. (B) Proteasome inhibitors ALLN or MG-132 were added at the indicated concentrations 4 h before cells were harvested. Protein levels of HDAC-2 were determined by Westernblot analysis.

Assay [4] deals with acute promyelocytic leukemia mice. As to the kind of experiment: Secondary acute promyelocytic leukemia mouse model: survival and splenomegaly. Type of assay: in vivo. The source says:
FIG. 1: (A) Secondary acute promyelocytic leukemias were induced in mice. In brief, primary leukemias were induced in mice by injecting PMURAR expressing bone marrow cells into the tail veins. Mice with overt leukemias were euthanized, and leukemic cells were harvested from the spleen. Leukemic cells were re-injected i.v. (1×10^7 cells/mouse) in non-irradiated, syngeneic recipient mice. The secondary recipient mice developed overt leukemia in about 2-3 weeks. Leukemic mice or healthy mice (Ctrl) were then treated with placebo (lanes 1, 3), or VPA (400 mg/kg every 12 hours) for two consecutive weeks. (B) Leukemic mice were treated with placebo (lower, Ctrl) or VPA (400 mg/kg every twelve hours, upper) for one week. At the end of the treatment, mice were sacrificed, and spleens were photographed.

For assay [5], the system named is HDAC-2. The assay can be described thus: HDAC-2 protein levels in F9 teratocarcinoma cells (Westernblot). It is filed as cell-based, murine. As to the method: as §3
In assay [6] the test system is splenocytes from leukemic mice (>75% blasts). The assay can be described thus: Apoptosis of cultured leukemic splenocytes/APL blasts (propidium iodide staining). Type of assay: cell-based. The conditions noted are these: VPA 1 mM, 48 hours, FIG. 3B. As to the method: as §2
FIG. 5: Leukemic blasts were obtained from spleens of secondary leukemic mice with a >75% invasion of tumor cells, as assessed by histological examination. Cells were put in culture and treated with VPA (1 mM) for 48 hours, in the absence or in the presence of the indicated TRAIL and/or caspase 8 inhibitors as indicated. At the end of the treatment, apoptosis was measured as described above.

The next assay deals with leukemic spleens. As to the kind of experiment: Apoptosis in leukemic spleens after in vivo treatment (TUNEL assay). Also noted: species or system mice. The conditions noted are these: VPA 400 mg/kg every 12 hours, 48 hours; FIG. 3A. As to the method: as §2
Assay [7] deals with HDAC-2. As to the kind of experiment: Ubiquitinated proteins in anti HDAC-2 immune precipitates (Westernblot against ubiquitin). Type of assay: cell-based. The conditions noted are these: FIG. 10A. The source says:
FIG. 10: (A) The total amount of high molecular weight poly-ubiquitinated protein was not altered by VPA treatment of cells (left two lanes). The presence of ubiquitinated proteins in anti HDAC-2 immune precipitates is shown in the right part of the panel. […] Ubiquitinated proteins in the precipitates were detected by Western blot analysis. For lane N a non-immune serum was used instead of the anti HDAC-2 antibody. (B) The presence of mono- and/or oligo-ubiquitinated HDAC-2 upon VPA treatment of HEK293T cells was determined by ectopic expression of His6-tagged ubiquitin followed by VPA-treatment for 36 h as indicated. The proteasome inhibitor MG-132 was added 4 h prior to analysis to enhance the accumulation of ubiquitinated proteins. Electrophoretic mobility and unaltered presence of non-ubiquitinated HDAC-2 were determined by Westernblot analysis of whole cell extracts (left panel). […] Anti-HDAC-2 immuno-reactive bands with the expected mobility of mono- or poly-ubiquitinated HDAC-2 are indicated by a bracket.

In assay [8] the test system is HDAC-2 mRNA. The assay can be described thus: HDAC-2 mRNA levels in HEK293T cells (Northern blot). It is filed as cell-based, human. The conditions noted are these: 1 mM VPA, FIG. 7. As to the method: as §1
The next assay concerns acetylated histones. As to the kind of experiment: Histone acetylation in spleen after in vivo treatment (Western blot, immunohistochemistry). The conditions noted are these: for histone acetylation, spleen whole cell extracts: VPA 400 mg/kg, three and six hours, FIG. 2A. Also noted: species or system mice. As to the method:
FIG. 2: (A) Secondary acute promyelocytic leukemias were induced in mice as described above. (A) Leukemic mice or healthy mice (Ctrl) were then treated with placebo or VPA (400 mg/kg) for three and six hours. Mice were then sacrificed, whole cell extracts were prepared from the spleen (with >70% leukemic infiltration), and analyzed by SDS-PAGE followed by Western blot analysis using commercially available antibodies against acetylated histone H3. (B) Immunohistochemistry analysis of VPA-treated leukemic mice using a monoclonal antibody against acetylated histones.
For orientation: A western blot detects proteins with antibodies after separation by electrophoresis.

`CCCC(CCC)C(=O)O` [VPA, Valproic acid]: the “HDAC-2 mRNA levels” value in the assay on HDAC-2 mRNA [1] and with HDAC-2 mRNA [8] was “no response of HDAC-2 mRNA levels” each time. Further, the “apoptosis (propidium iodide, sub-G1)” value is reported as “unable to induce apoptosis of normal splenocytes” in assay [2] and “induces massive apoptosis of leukemic cells” in assay [6]. In addition, the HDAC-2 protein levels entry with HDAC-2 [3] (HEK293T cells, VPA 1 mM, TSA 100 nM, trapoxin 10 nM, butyrate 1.5 mM, MS275 5 μM) is “reduced”; in the assay with HDAC-2 [5] (F9 cells, VPA 1 mM, TSA 100 nM up to 48 h), “reduced”. In addition, the “HDAC-2 protein levels at higher doses” value with HDAC-2 [3] (HEK 293T, VPA concentrations increased up to 5 or 10 mM, 36 h, FIG. 6B) is reported as “slightly more pronounced reduction”. In addition, in [4] (VPA 400 mg/kg every 12 hours for two consecutive weeks vs placebo, P<0.01, FIG. 1A), the “survival of leukemic mice” value is recorded as “extended survival of leukemic mice in a statistically significant way”. In addition, in assay [4] (VPA 400 mg/kg every twelve hours for one week vs placebo, FIG. 1B), the “splenomegaly caused by blast infiltration” value was “dramatic reduction in the splenomegaly”. Also, the “HDAC-2 protein levels relative to untreated cells” value in the assay on HDAC-2 [5] (1 mM VPA, 24 h, persists up to 48 h, FIG. 6A (F9 and HEK293T, cell line not given)) was “about 30%”. The “apoptotic cells in leukemic spleens (TUNEL)” value with leukemic spleens is recorded as “induces massive apoptosis within leukemic spleens”. For the same molecule, in the assay on HDAC-2 [7] (VPA 1.5 mM, 24 h, ALLN 5 μM), the “amount of ubiquitinated protein precipitated with antibody against HDAC-2” value was “increase the amount of this anti-ubiquitin reactive protein”. Moreover, the “overall amount of cellular ubiquitinated proteins” value with HDAC-2 [7] (VPA treatment) is “moderately reduced”. Further, the “histone acetylation, spleen whole cell extracts” value with acetylated histones (leukemic mice (>70% leukemic infiltration)) and in the assay on acetylated histones (normal mice) was “enhanced levels of histone acetylation” in each case. Also, the “histone acetylation by immunohistochemistry” value in the assay on acetylated histones (leukemic mice, monoclonal antibody against acetylated histones, FIG. 2B) is listed as “dramatic increase of histone acetylation in all cells”.
